Experimental data published in patent US11208399B2, “NLRP3 inflammasome inhibitors” (Novartis AG, priority 2019, dated 2021).
pIC50: −log10 of the molar value.

Tests used:
[1] = tested on: NLRP3 inflammasome; test: IL-1β secretion assay in PMA-differentiated THP-1 cells, nigericin-activated (HTRF); type: cell-based; settings: Homo sapiens, 15 μM nigericin, 3 hours, read-out: IL-1β IC50
Description: 10 μL supernatant was removed, and IL-1p levels were monitored using an HTRF assay (CisBio, #621L1PEC) according to manufacturers' instructions. Viability and pyroptosis was monitored with the addition of PrestoBlue cell viability reagent (Life Technologies, #A13261) directly to the cell culture plate.
IC50 values were calculated from the plot of percentage of inhibition versus the inhibitor concentration by a logistics fit according to: y=A2+(A1−A2)/(1+(x/IC50)^p) where y is the %-inhibition at the inhibitor concentration, x. A1 is the lowest inhibition value, i.e. 0%, and A2 the maximum inhibition value, i.e. 100%. The exponent, p, is the Hill coefficient. The curve fitting was conducted with an internally developed software suite.
NLRP3-dependent IL-1β secretion was stimulated in PMA-differentiated THP-1 cells by the addition of nigericin, and cytokines were measured in the […] after 3 hours. As discussed above, activation of the NLRP3 inflammasome requires both an NF-kB-dependent priming step and the addition of a NLRP3 activator.

[2] = tested on: NF-kB-dependent TNF-α secretion; test: TNF-α secretion assay in THP-1 cells (counter screen, HTRF); type: cell-based; settings: Homo sapiens, Pam3CSK4-stimulated, 3 hours
Procedure, shortened: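 THP-1 cells were treated with compound, then stimulated with 1 μg/mL LPS or 100 ng/mL Pam3CSK4 for 3 h. Secreted TNF-α in supernatant was measured by HTRF, with viability monitored in parallel. IC50 from logistic fit of % inhibition versus concentration with Hill coefficient.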

Cc1cc(C(F)(F)F)cc(O)c1-c1ccc(N[C@@H]2CCCN(C)C2=O)nn1 [Ex 59, (R)-3-((6-(2-Hydroxy-6-methyl-4-(trifluoromethyl)phenyl)pyridazin-3-yl)amino)-1-methylpiperidin-2-one]
pIC50 [1]: 7.44 | pIC50 [2]: < 4.00

Oc1cc(C(F)(F)F)cc(Cl)c1-c1ccc(N[C@H]2C[C@H](O)C2)nn1 [Ex 32, 3-Chloro-2-(6-((trans-3-hydroxycyclobutyl)amino)pyridazin-3-yl)-5-(trifluoromethyl)phenol]
pIC50 [1]: 6.66 | pIC50 [2]: 4.07

Cc1cc(C(F)(F)F)cc(O)c1-c1ccc(OCC(C)(C)O)nn1 [Ex 19, 2-(6-(2-Hydroxy-2-methylpropoxy)pyridazin-3-yl)-3-methyl-5-(trifluoromethyl)phenol]
pIC50 [1]: 7.03 | pIC50 [2]: < 4.00

Cc1cc(C(F)(F)F)cc(O)c1-c1ccc(NCc2ccccn2)nn1 [Ex 28, 3-Methyl-2-(6-((pyridin-2-ylmethyl)amino)pyridazin-3-yl)-5-(trifluoromethyl)phenol]
pIC50 [1]: 6.54 | pIC50 [2]: < 4.00

C[C@]1(O)C[C@@H](Nc2cc(C(F)(F)F)c(-c3ccc(Cl)cc3O)nn2)C1 [Ex 69, 5-Chloro-2-(6-(((cis)-3-hydroxy-3-methylcyclobutyl)amino)-4-(trifluoromethyl)pyridazin-3-yl)phenol]
pIC50 [1]: 6.37 | pIC50 [2]: < 4.48

Cc1cc(NCC(C)(C)O)nnc1-c1c(C)cc(C(F)(F)F)cc1O [Ex 73, 2-(6-((2-Hydroxy-2-methylpropyl)amino)-4-methylpyridazin-3-yl)-3-methyl-5-(trifluoromethyl)phenol]
pIC50 [1]: 6.81 | pIC50 [2]: 4.26
